The text below walks through data of PubChem BioAssay (NCI).

Some test systems named below: A498 renal; HCT-116 colon; HCT-15 colon; HOP-62 NSCLC; NCI-H460 lung; OVCAR-5 ovarian; SK-MEL-28 melanoma; SK-OV-3 ovarian; SN12C renal.
What all share (assay): NCI tumour cell line growth inhibition, 48 h

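Step 1: Grow cells in 96-well plates. Step 2: Expose to compound for 48 hours at 5 concentrations. Step 3: Interpolate endpoints linearly; if unreached, use highest concentration. TGI: concentration producing complete growth inhibition.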 Where only a bound is given, the exact number is not on record here.

`COC(=O)C1=C(O)C(C(=O)OC)[C@@]2(O)[C@@H](C(=O)OC)C(c3ccc(OC(=O)/C(=C/c4ccccc4)c4ccccc4)cc3)C[C@@H]1[C@@H]2C(=O)OC` (stereo partly drawn): the TGI was 96.4 µM in the test on A498 renal; more than 100 µM in the test with HCT-116 colon; more than 100 µM in the test on HCT-15 colon; more than 100 µM with HOP-62 NSCLC; more than 100 µM with NCI-H460 lung; more than 100 µM in the test with OVCAR-5 ovarian. For the same compound, the TGI with SK-MEL-28 melanoma, in the test with SK-OV-3 ovarian and in the test on SN12C renal was more than 100 µM each time.

`CN(C)c1ncc(-c2c[nH]c3ccccc23)nc1-c1c[nH]c2ccccc12`: the TGI in the test with A498 renal was 4.56 µM; in the test with HCT-116 colon it was 12 µM; in the test on HCT-15 colon, 16.4 µM; with HOP-62 NSCLC, 22 µM; in the test with NCI-H460 lung, 4.99 µM; with OVCAR-5 ovarian, 16.9 µM. For the same compound, the TGI in the test with SK-MEL-28 melanoma came to 5.73 µM; with SK-OV-3 ovarian, 20.4 µM; with SN12C renal, 5.78 µM.

`Cc1ccc(-c2n[nH]c(=O)n2N)cc1`: the TGI in the test with A498 renal, with HCT-116 colon, in the test on HCT-15 colon, in the test with HOP-62 NSCLC, in the test on NCI-H460 lung and in the test on OVCAR-5 ovarian was more than 100 µM each time. Further, the TGI in the test on SK-MEL-28 melanoma, in the test with SK-OV-3 ovarian and with SN12C renal was more than 100 µM throughout.

In the case of `C[C@H](C(=O)N1C(=O)O[C@@H](c2ccccc2)[C@H]1C)[C@H](c1ccccc1)N(Cc1ccccc1)OC(=O)c1ccccc1`, the TGI is more than 100 µM in the test with A498 renal; more than 100 µM in the test with HCT-116 colon; more than 100 µM in the test with HCT-15 colon; 52.1 µM in the test on HOP-62 NSCLC; more than 100 µM with NCI-H460 lung; more than 100 µM in the test with OVCAR-5 ovarian. Further, the TGI in the test on SK-MEL-28 melanoma, with SK-OV-3 ovarian and in the test on SN12C renal was more than 100 µM each time.

Turning to `Cn1cc(C=C(C#N)C#N)c(=O)n(C)c1=O`, the TGI in the test with A498 renal, with HCT-116 colon, in the test with HCT-15 colon, in the test with HOP-62 NSCLC, with NCI-H460 lung and in the test with OVCAR-5 ovarian was more than 100 µM in each case. The TGI in the test with SK-MEL-28 melanoma, in the test with SK-OV-3 ovarian and with SN12C renal was more than 100 µM in each case.

On to `CNC(=S)N/N=C(\C)c1ccc(OC)cc1O`, for which the TGI in the test with A498 renal, in the test with HCT-116 colon, in the test with HCT-15 colon, in the test with HOP-62 NSCLC, with NCI-H460 lung and with OVCAR-5 ovarian was more than 100 µM in each case. Further, the TGI in the test with SK-MEL-28 melanoma, in the test with SK-OV-3 ovarian and in the test on SN12C renal was more than 100 µM throughout.

Take `CCN(CC)CC1CCCCN1CC(=O)N1c2ccc(Br)cc2C(=O)Nc2cccnc21` (stereo not drawn): the TGI with A498 renal, with HCT-116 colon, in the test with HCT-15 colon, with HOP-62 NSCLC, in the test on NCI-H460 lung and with OVCAR-5 ovarian was more than 100 µM throughout. In addition, the TGI in the test with SK-MEL-28 melanoma, with SK-OV-3 ovarian and with SN12C renal was more than 100 µM each time.

As for `COc1ccc(Oc2nc3cc(C(F)(F)F)ccc3nc2C(C)C)cc1`, the TGI is 58.3 µM in the test with A498 renal; more than 100 µM in the test on HCT-116 colon; 59.4 µM in the test on HCT-15 colon; more than 100 µM with HOP-62 NSCLC; 68.8 µM with NCI-H460 lung; 77.4 µM with OVCAR-5 ovarian. In addition, the results for the TGI in the test on SK-MEL-28 melanoma, in the test with SK-OV-3 ovarian and with SN12C renal were more than 100 µM, more than 100 µM and 59.7 µM, respectively.

On to `COc1cccc(NC(=O)c2c(SC)n[nH]c2N)c1`, for which the TGI in the test on A498 renal, in the test on HCT-116 colon, with HCT-15 colon, in the test on HOP-62 NSCLC, with NCI-H460 lung and in the test on OVCAR-5 ovarian was more than 100 µM each time. Besides, the TGI in the test on SK-MEL-28 melanoma, in the test on SK-OV-3 ovarian and in the test on SN12C renal was more than 100 µM in each case.

In the case of `COC(=O)C1=C(C(=O)OC)C2(/N=C(\Nc3ccccc3)c3ccccc3)N(c3ccc(OC)cc3)CC(c3ccccc3)N2O1` (stereo not drawn), the TGI in the test with A498 renal, with HCT-116 colon, in the test with HCT-15 colon, in the test with HOP-62 NSCLC, in the test with NCI-H460 lung and with OVCAR-5 ovarian was more than 100 µM in each case. Besides, the TGI in the test on SK-MEL-28 melanoma, in the test on SK-OV-3 ovarian and in the test on SN12C renal was more than 100 µM in each case.

As for `O=C(C1=CCC2(CC1)OCCO2)N(Cc1ccccc1)c1ccccc1I`, the TGI stood at 51.9 µM in the test with A498 renal; 37.7 µM in the test on HCT-116 colon; 57.2 µM in the test with HCT-15 colon; 43.3 µM with HOP-62 NSCLC; 46.4 µM with NCI-H460 lung; 36.7 µM in the test with OVCAR-5 ovarian. The figures for the TGI in the test on SK-MEL-28 melanoma, in the test on SK-OV-3 ovarian and with SN12C renal were 46.2 µM, 88.2 µM and 56 µM, respectively.

On to `COc1ccc(C(=O)N=C2N(c3ccccc3)C(=Nc3ccccc3)C(=Nc3ccccc3)N2c2ccccc2)cc1`, for which the TGI in the test on A498 renal was 61.1 µM; with HCT-116 colon, more than 100 µM; in the test with HCT-15 colon, more than 100 µM; with HOP-62 NSCLC, 57.5 µM; in the test with NCI-H460 lung, more than 100 µM; with OVCAR-5 ovarian, more than 100 µM. For the same compound, the TGI in the test on SK-MEL-28 melanoma was more than 66.6 µM; in the test on SK-OV-3 ovarian, more than 100 µM; in the test on SN12C renal it was more than 100 µM.

For `O=[N+]([O-])/C(Cl)=C(\Sc1ccccc1)C(Cl)=C(Cl)Cl`, the TGI in the test with A498 renal was determined as 3.1 µM; in the test with HCT-116 colon, 0.278 µM; in the test on HCT-15 colon it was 1.5 µM; in the test with HOP-62 NSCLC it was 3.68 µM; with NCI-H460 lung it was 3.22 µM; in the test on OVCAR-5 ovarian it was 3.66 µM. Besides, the values for the TGI in the test on SK-MEL-28 melanoma, in the test on SK-OV-3 ovarian and in the test with SN12C renal were 2.76 µM, 13.3 µM and 1.51 µM, respectively.

As for `COC(=O)c1c(C)cccc1C1CN=NC12Cc1c(C)cccc1C2=O` (stereo not drawn), the TGI in the test on A498 renal, with HCT-116 colon, in the test with HCT-15 colon, in the test with HOP-62 NSCLC, in the test on NCI-H460 lung and in the test on OVCAR-5 ovarian was more than 100 µM each time. Also, the TGI in the test on SK-MEL-28 melanoma, with SK-OV-3 ovarian and with SN12C renal was more than 100 µM throughout.

With `Nc1nonc1-c1noc(-c2nonc2N)[n+]1[O-]`, the TGI in the test on A498 renal was more than 100 µM; with HCT-116 colon, more than 100 µM; with HCT-15 colon, 49.1 µM; in the test on HOP-62 NSCLC, more than 100 µM; with NCI-H460 lung, more than 100 µM; with OVCAR-5 ovarian, more than 100 µM. Besides, the TGI in the test on SK-MEL-28 melanoma, in the test with SK-OV-3 ovarian and in the test with SN12C renal was more than 100 µM in each case.

Consider `CC(C)Nc1n[nH]c(=O)n1C(C)C`, for which the TGI in the test with A498 renal, with HCT-116 colon, in the test with HCT-15 colon, in the test with HOP-62 NSCLC, in the test on NCI-H460 lung and in the test on OVCAR-5 ovarian was more than 100 µM in each case. The TGI in the test on SK-MEL-28 melanoma, in the test on SK-OV-3 ovarian and in the test on SN12C renal was more than 100 µM each time.

As for `CN(C)CCCNC(=O)c1cc(NC(=O)CCCn2c3ccccc3c3ccccc32)cn1C`, the TGI with A498 renal is 71.3 µM; in the test with HCT-116 colon it was more than 100 µM; with HCT-15 colon, more than 100 µM; with HOP-62 NSCLC it was more than 100 µM; in the test on NCI-H460 lung, more than 100 µM; in the test on OVCAR-5 ovarian, more than 100 µM. The TGI in the test with SK-MEL-28 melanoma, in the test on SK-OV-3 ovarian and with SN12C renal was more than 100 µM each time.

As to `COc1ccc(-c2c(N)n(-c3cc(OC)cc(OC)c3)c(=O)c3cc([N+](=O)[O-])ccc23)cc1`, the TGI was 98.5 µM in the test with A498 renal; more than 100 µM in the test with HCT-116 colon; more than 100 µM in the test with HCT-15 colon; more than 100 µM in the test with HOP-62 NSCLC; more than 100 µM in the test with NCI-H460 lung; more than 100 µM in the test on OVCAR-5 ovarian. Also, the TGI with SK-MEL-28 melanoma, in the test on SK-OV-3 ovarian and in the test on SN12C renal was more than 100 µM each time.

Turning to `COc1cc(C(CN)N(C)C)cc(OC)c1OC` (stereo not drawn), the TGI in the test with A498 renal, with HCT-116 colon, with HCT-15 colon, with HOP-62 NSCLC, with NCI-H460 lung and in the test with OVCAR-5 ovarian was more than 100 µM in each case. For the same compound, the TGI in the test on SK-MEL-28 melanoma, in the test with SK-OV-3 ovarian and with SN12C renal was more than 100 µM each time.

`O=C(Nc1ccccc1)N1CC(CN2CCN(c3ccccc3)CC2)OC1=O` (stereo not drawn): the TGI with A498 renal, with HCT-116 colon, with HCT-15 colon, in the test with HOP-62 NSCLC, in the test with NCI-H460 lung and with OVCAR-5 ovarian was more than 100 µM in each case. The TGI with SK-MEL-28 melanoma, with SK-OV-3 ovarian and in the test with SN12C renal was more than 100 µM throughout.

With `S=c1scc(-c2ccc(Cl)cc2)n1OC1CCCC1`, the TGI with A498 renal was 79.8 µM; with HCT-116 colon, more than 100 µM; in the test with HCT-15 colon, more than 100 µM; with HOP-62 NSCLC, more than 100 µM; in the test on NCI-H460 lung, more than 100 µM; in the test on OVCAR-5 ovarian, more than 100 µM. Also, the TGI in the test on SK-MEL-28 melanoma, in the test on SK-OV-3 ovarian and in the test with SN12C renal was more than 100 µM throughout.

With `COC(=O)c1ccccc1C1CN=NC12Cc1c(C)c3c(c(C)c1C2=O)CCC3` (stereo not drawn), the TGI in the test on A498 renal, in the test with HCT-116 colon, in the test on HCT-15 colon, in the test on HOP-62 NSCLC, in the test with NCI-H460 lung and in the test on OVCAR-5 ovarian was more than 100 µM in each case. The TGI in the test with SK-MEL-28 melanoma, with SK-OV-3 ovarian and in the test on SN12C renal was more than 100 µM each time.
